“And” between values parts separate entries of the source, which are not always exact repeats. Equal entries are not always repeated.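 Cultured in 96-well plates, cells were exposed to test compound for 48 hours across five concentrations. GI50: concentration for 50% inhibition of growth. Definition used: TGI = concentration required for complete inhibition of growth.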
Assays:
Assay in all cases: growth of human tumour cells (NCI), 48 h
SK-OV-3 ovarian = test system: SK-OV-3 ovarian
HOP-92 NSCLC = test system: HOP-92 NSCLC
RXF 393 renal = test system: RXF 393 renal
NCI-H226 lung = test system: NCI-H226 lung
NCI-H23 lung = test system: NCI-H23 lung
A498 renal = test system: A498 renal
T-47D breast = test system: T-47D breast
SNB-75 CNS = test system: SNB-75 CNS
SW-620 colon = test system: SW-620 colon
SN12C renal = test system: SN12C renal

Structure (SMILES) | GI50 (SK-OV-3 ovarian) | TGI (SK-OV-3 ovarian) | GI50 (HOP-92 NSCLC) | TGI (HOP-92 NSCLC) | GI50 (RXF 393 renal) | TGI (RXF 393 renal) | GI50 (NCI-H226 lung) | TGI (NCI-H226 lung) | GI50 (NCI-H23 lung) | TGI (NCI-H23 lung) | GI50 (A498 renal) | TGI (A498 renal) | GI50 (T-47D breast) | TGI (T-47D breast) | GI50 (SNB-75 CNS) | TGI (SNB-75 CNS) | GI50 (SW-620 colon) | TGI (SW-620 colon) | GI50 (SN12C renal) | TGI (SN12C renal)
COc1cc(/C=N\Nc2ccccc2)ccc1OC(=O)c1ccccc1 | 45.6 µM | > 100 µM | 12.2 µM | > 89 µM | 23.2 µM | 74.6 µM | 10.2 µM | > 77.6 µM | 15.8 µM | > 100 µM | 20 µM | > 92.9 µM | 0.268 µM | > 85.9 µM | 12.8 µM | 61.9 µM | 0.736 µM | 19.9 µM | 11 µM | > 100 µM
Nc1nc(N)c(CCCCc2ccc([N+](=O)[O-])cc2)c(N)n1 | – | > 100 µM | – | > 100 µM | – | > 100 µM | – | > 100 µM | – | > 100 µM | – | > 100 µM | – | > 100 µM | – | > 100 µM | – | > 100 µM | – | > 100 µM
O=C(Nc1c[nH]c(=O)[nH]c1=O)Oc1ccccc1 | – | > 100 µM | – | > 100 µM | – | > 100 µM | – | > 100 µM | – | > 100 µM | – | > 100 µM | – | > 100 µM | – | > 100 µM | – | > 100 µM | – | > 100 µM
COc1cc(F)c(F)c(Nc2ccc(I)cc2F)c1NS(=O)(=O)C1(CC(O)CO)CC1 (stereo unspecified) | 25.8 µM | > 79.6 µM | 1.13 µM | 19.6 µM | 5.78 µM | 19.7 µM | 15.2 µM | 49.2 µM | 12.1 µM | 36.4 µM | 10.1 µM | 28.1 µM | 15.7 µM | > 75.5 µM | 6.29 µM | 49.2 µM | 13.6 µM | > 59.5 µM | 12.5 µM | 38.6 µM
ClC/C=C/CSc1ncnc2nc[nH]c12 | > 100 µM | > 100 µM | > 100 µM | > 100 µM | > 100 µM | > 100 µM | > 100 µM | > 100 µM | > 100 µM | > 100 µM | > 100 µM | > 100 µM | > 100 µM | > 100 µM | > 100 µM | > 100 µM | > 100 µM | > 100 µM | > 100 µM | > 100 µM
O=C1c2ccc3c4c(ccc(c24)C(=O)N1CCCCO)C(=O)N(CCCCO)C3=O | 4.14 µM | 17.8 µM | 3.51 µM | 7.98 µM | 2.08 µM | 10.7 µM | 3.45 µM | 15.5 µM | 1.6 µM | 5.17 µM | 1.12 µM | 2.87 µM | 2.54 µM | 7.26 µM | 3.12 µM | 13.6 µM | 1.86 µM | 10.1 µM | 1.88 µM | 6.63 µM
N#Cc1cnn(C(=O)c2nn(-c3ccc(Cl)cc3)cc2O)c1N | 0.521 µM | 11.3 µM | 0.405 µM | 27.3 µM | 0.161 µM | 3.91 µM | 0.349 µM | 7.45 µM | 0.371 µM | 15.1 µM | 0.174 µM | 0.626 µM | 0.294 µM | 19.1 µM | 0.248 µM | 17.8 µM | 0.521 µM | 21 µM | 0.342 µM | 17.5 µM
COc1cc2c(cc1O)CCN[C@@]21CS[C@H]2c3c(OC(C)=O)c(C)c4c(c3C(COC1=O)N1C2C2NC(Cc3cc(C)c(OC)c(O)c32)[C@@H]1O)OCO4 (stereo partly specified) | 4.5 ng/mL | 10.9 µM and 1.47 µg/mL | 0.000135 ng/mL | 9.17 µM and 5.9e-07 µg/mL | 4.5 ng/mL | < 10 nM and 1.9e-07 µg/mL and 0.0045 µg/mL | – | 0.000273 ng/mL | 4.5 ng/mL | 298 nM and 1.3e-07 µg/mL and 0.0045 µg/mL | – | < 10 nM and 6.8e-07 µg/mL and 0.0045 µg/mL | – | 0.0453 µM | 4.5 ng/mL | – | 4.5 ng/mL | 7.33 µM and 4.98 µg/mL | 4.5 ng/mL | 4.8 ng/mL
COC(=O)c1sc(-n2cnc3cc(OC)c(OC)cc32)cc1OCc1ccccc1C(F)(F)F | > 21.5 µM | > 25 µM | 4.31 µM | 18.1 µM | 7.45 µM | > 25 µM | > 25 µM | > 25 µM | > 25 µM | > 25 µM | 0.513 µM | > 25 µM | > 25 µM | > 25 µM | 9.07 µM | > 19.6 µM | > 25 µM | > 25 µM | > 25 µM | > 25 µM
COc1cc(C2c3cc4c(cc3[C@@H](Nc3ccc(F)cc3)C3COC(=O)[C@H]23)OCO4)cc(OC)c1O (stereo partly specified) | – | 21 µM | – | 24.8 µM | – | 11.4 µM | 0.529 µM | 0.985 µM and 5.18 µM | 0.386 µM | 7.56 µM | 0.878 µM | 7.84 µM | – | 61.3 µM | 0.438 µM | – | 0.859 µM | 44.8 µM | 0.718 µM | 9.64 µM

— PubChem BioAssay (NCI)
